From ChEMBL document CHEMBL1123061, “Potentiation of fasciolicidal agents by benzoyl side chains. Synthesis of benzoylsalicylanilides” (1985)

These compounds were tested on Fasciola hepatica (assay: In vivo for fasciolicidal activity against Fasciola hepatica infections in rats following s.c. administration.).

Row | Structure (SMILES) | Dose
1 | Cc1cc(C(=O)c2ccc(Cl)c(Cl)c2)cc(C(=O)Nc2ccc([N+](=O)[O-])cc2Cl)c1O | 3.1 mg/kg
2 | Cc1cc(C(=O)c2ccc(Cl)cc2)cc(C(=O)Nc2cc(Cl)cc(Cl)c2)c1O | 100 mg/kg
3 | Cc1cc(C(=O)c2ccc(Br)cc2)cc(C(=O)Nc2ccc([N+](=O)[O-])cc2Cl)c1O | 3.1 mg/kg
4 | Cc1cc(C(=O)c2ccc(Br)cc2)cc(C(=O)Nc2ccc(Cl)cc2Cl)c1O | 100 mg/kg
5 | Cc1cc(C(=O)c2ccc(Cl)cc2Cl)cc(C(=O)Nc2ccc([N+](=O)[O-])cc2Cl)c1O | 6.3 mg/kg
6 | Cc1cc(C(=O)c2ccc(Cl)cc2)cc(C(=O)Nc2ccc(Cl)c(Cl)c2)c1O | 100 mg/kg
7 | O=C(c1ccc(Cl)cc1)c1ccc(O)c(C(=O)Nc2ccc([N+](=O)[O-])cc2Cl)c1 | 25 mg/kg
8 | Cc1cc(C(=O)c2ccc([N+](=O)[O-])cc2)cc(C(=O)Nc2ccc([N+](=O)[O-])cc2Cl)c1O | 6.3 mg/kg
9 | Cc1cc(C(=O)c2ccc(Cl)cc2)cc(C(=O)Nc2ccc([N+](=O)[O-])cc2C(F)(F)F)c1O | 6.3 mg/kg
10 | Cc1cc(C(=O)c2ccc(Cl)cc2)cc(C(=O)Nc2ccc(C#N)cc2)c1O | 100 mg/kg
11 | Cc1cc(C(=O)c2ccc(Cl)cc2)cc(C(=O)Nc2ccc([N+](=O)[O-])cc2Br)c1O | 3.1 mg/kg
12 | Cc1c(C(=O)c2ccc(Cl)cc2)cc(C(C)(C)C)c(O)c1C(=O)Nc1ccc([N+](=O)[O-])cc1Cl | 1.6 mg/kg
13 | Cc1cc(C(=O)c2ccc(Cl)cc2)c(C)c(C(=O)Nc2ccc([N+](=O)[O-])cc2Cl)c1O | 3.1 mg/kg
14 | Cc1cc(Oc2ccccc2)cc(C(=O)Nc2ccc(Cl)cc2Cl)c1O | 100 mg/kg
15 | Cc1cc(C(=O)c2ccc(C#N)cc2)cc(C(=O)Nc2ccc([N+](=O)[O-])cc2Cl)c1O | 6.3 mg/kg
16 | Cc1cc(Cc2ccccc2)cc(C(=O)Nc2ccc(Cl)cc2Cl)c1O | 100 mg/kg
17 | Cc1cc(C(=O)c2ccc([N+](=O)[O-])cc2)cc(C(=O)Nc2ccc(Cl)cc2Cl)c1O | 12.5 mg/kg
18 | Cc1cc(C(=O)c2ccc(Cl)cc2)cc(C(=O)Nc2ccc([N+](=O)[O-])cc2Cl)c1O | 6.3 mg/kg
19 | Cc1cc(C(=O)c2ccc(I)cc2)cc(C(=O)Nc2ccc([N+](=O)[O-])cc2Cl)c1O | 12.5 mg/kg
20 | O=C(Nc1ccc(Oc2ccc(Cl)cc2)c(Cl)c1)c1cc(I)cc(I)c1O [RAFOXANIDE] | 12.5 mg/kg
21 | Cc1cc(C(=O)c2ccc(Cl)cc2)cc(C(=O)Nc2ccc(Br)cc2C(F)(F)F)c1O | 6.3 mg/kg
